The source of these data is patent US20210277009A1, “PRMT5 INHIBITORS” (Merck Sharp & Dohme Corp., priority 2018, published 2021).

Read-outs that look alike come from different tables or passages of the source.

For assay [1], the system named is symmetric dimethylation of arginine (SDMA) of PRMT5 substrates in MCF-7 cells. The assay can be described thus: PRMT5 Cell Target Engagement (TE) Assay. The conditions noted are these: Homo sapiens, MCF7, 72 h, treated for 3 days, nuclear SDMA by high content imaging, top concentration 10000 nM. In kind it is cell-based. An excerpt:
The PRMT5 TE assay is a biomarker assay for identifying compounds that inhibit symmetric dimethylation of arginine (SDMA) of PRMT5 substrates. The following substrates have been reported for PRMT5: histone H2A and H4 R3, Histone H3 R2, Histone H3 R8, spliceosome Sm proteins, ribosomal protein RPS10, p53, FEN1, nudeoplasmin, nucleolin, EGFR and EBNA. The assay will focus on detecting symmetrically dimethylated nuclear proteins using high content imaging technology. Detection of the expression of symmetrically dimethylated nuclear proteins is through a mixture of primary rabbit monoclonal antibodies to SDMA (CST 13222), which in turn recognized by an Alexafluor 488 dye-conjugated anti-rabbit IgG secondary antibody. The IN Cell Analyzer 2200 or Opera-Phenix measures nuclear Alexafluor 488 fluorescent dye intensity that is directly related to the level of expression of symmetrically dimethylated nuclear proteins at the single cell level. Nuclear AF488 dye intensities are compared to the mean value for DMSO treated cells (MIN) to report percent of inhibition for each compound-treated well.
In this assay, the cell potency (EC50) of each compound was determined from a ten point (1:3 serial dilution; top compound concentration of 10000 nM) titration curve using the following outlined procedure. Each well of a BD falcon collagen coated black/clear bottom 384-well plate was seeded with 4000 MCF-7 cells in 30 μl media and allowed to attach for 5 h. Media is ATCC-formulated Eagle's Minimum Essential Medium, Catalog No. 30-2003. To make the complete growth medium, the following components were added to the base medium: 0.01 mg/ml human recombinant insulin; fetal bovine serum to a final concentration of 10%. Additional 30 μl of media containing 2× compounds were added to each well. Cells were treated for 3 days in 37° C. CO2 incubator. On day 3, cells were fixed with Cytofix, permeablized with 0.4% Triton-X-100/Cytofix, and washed with D-PBS without Ca/Mg. Cells were blocked with Licor Odessey blocking reagent for 1 h at room temperature, followed by incubation with anti-SDMA (1:1000) antibody at 4° C. overnight. 1° antibody was removed, followed by three washings with DPBS without Ca/Mg and 0.05% Tween20. Hoechst (5 μg/ml), Cell Mask deep stain (1:2000) and Alexa488-conjugated goat anti-rabbit IgG (2 μg/mL) was added for 1 hour at room temperature. A final washing step (three washes) was performed before sealing plate for imaging on In Cell Analyzer 2200 or Opera-Phenix. Images from analyzer were uploaded to Columbus (at WP or BOS) for image analysis. IC50 values were determined by 4 parameters robust fit of percent fluorescence units vs. (Logic) compound concentrations.

For assay [2], the target named is T1, PRMT5-MEP50 enzyme complex (Homo sapiens, UniProt O14744).
T1 construct: 1.25 nM of Full-length (FL)-PRMT5-MEP50 enzyme complex; made in house; host or cells: baculovirus-transfected Sf21 cells
Kind of assay: PRMT5-MEP50 Enzyme Methylation Assay. In kind it is biochemical. The method, then:
PRMT5-MEP50 biochemical assay is a direct measurement of the methylation activity of the enzyme complex on a short peptide substrate derived from the N-terminus of H4 histone. Methylation experiment is performed with recombinant PRMT5-MEP50 protein complex. The assessment of inhibitory effect of small molecules is measured by tire effectiveness of the compounds to inhibit tins reaction (EC50).
In this assay, the potency (EC50) of each compound was determined from a twenty-point (1:2 serial dilution; top compound concentration of 100000 nM) titration curve using the following outlined procedure. To each well of a white ProxiPlus 384 well-plate, 100 nL of compound (1% DMSO in final assay volume of 10 μL) was dispensed, followed by the addition of 8 μL of 1× assay buffer (50 mM Bicine pH 8.0, 1 mM DTT, 0.004% Tween20, 0.01% BSA) containing 1.25 nM of Full-length (FL)-PRMT5-MEP50 enzyme complex (recombinant proteins from baculovirus-transfected Sf21 cells: FL-PRMT5; MW=[…] and FL-MEP50; MW=38614) and 1 μL of 150 μM S-(5′-Adenosyl)-L-Methionine Chloride (SAM). Plates were sealed and placed in a 37° C. humidified chamber for a 60 minutes pre-incubation with compound. Subsequently, each reaction was initiated by the addition of 1 μL 1× assay buffer containing 750 nM biotinylated H4R3(Mel) peptide. The final reaction in each well of 10 μL consists of 1.0 nM PRMT5-MEP50, 75 nM biotinylated-peptide, and […] SAM. Methylation reactions were allowed to proceed for 150 minutes in a sealed plate at 37° C. Reactions were immediately quenched by the addition of 1 μL of 5% formic acid. Plates were then frozen and shipped to SAMDITM Tech Inc. to determine the percent conversion from H4R3(Mel) to H4R3(Me2). Dose-response curves were generated by plotting percent effect (% product conversion; Y-axis) vs. Log 10 compound concentrations (X-axis). EC50 values were determined by non-linear regression according to models for either sigmoidal (4 parameters) or biphasic (7 parameters) dose-response curves.

Setting [3] is: single EC50 from 4 parameters single site sigmoidal model, or first EC50 of 7 parameters biphasic model, 1.0 nM PRMT5-MEP50, H4R3(Me1) peptide, SAM, read-out: Enzyme Methylation Assay (EC50 or EC50_1).
The mark [4] stands for this setting: second EC50 of 7 parameters biphasic model, read-out: Enzyme Methylation Assay (EC50_2).

T1 sequence (O14744 whole entry): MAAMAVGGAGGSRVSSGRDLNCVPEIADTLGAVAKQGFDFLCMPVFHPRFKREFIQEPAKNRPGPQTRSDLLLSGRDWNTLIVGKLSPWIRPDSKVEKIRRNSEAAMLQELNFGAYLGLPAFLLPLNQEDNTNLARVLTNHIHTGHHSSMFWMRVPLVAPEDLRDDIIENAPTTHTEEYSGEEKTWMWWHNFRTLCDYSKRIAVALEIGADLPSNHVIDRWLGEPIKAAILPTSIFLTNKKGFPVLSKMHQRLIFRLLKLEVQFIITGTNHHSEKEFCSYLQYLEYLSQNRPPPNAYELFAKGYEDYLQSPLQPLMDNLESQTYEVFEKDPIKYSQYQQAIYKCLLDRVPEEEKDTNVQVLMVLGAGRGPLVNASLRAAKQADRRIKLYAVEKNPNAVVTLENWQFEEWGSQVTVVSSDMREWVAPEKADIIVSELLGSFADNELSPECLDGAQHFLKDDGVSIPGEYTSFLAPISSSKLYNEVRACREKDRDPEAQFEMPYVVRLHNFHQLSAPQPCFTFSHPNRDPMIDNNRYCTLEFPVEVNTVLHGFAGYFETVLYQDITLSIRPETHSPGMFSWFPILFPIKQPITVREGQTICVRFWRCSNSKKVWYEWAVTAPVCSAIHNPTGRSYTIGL
T1 sequence (Q9BQA1 whole entry partner): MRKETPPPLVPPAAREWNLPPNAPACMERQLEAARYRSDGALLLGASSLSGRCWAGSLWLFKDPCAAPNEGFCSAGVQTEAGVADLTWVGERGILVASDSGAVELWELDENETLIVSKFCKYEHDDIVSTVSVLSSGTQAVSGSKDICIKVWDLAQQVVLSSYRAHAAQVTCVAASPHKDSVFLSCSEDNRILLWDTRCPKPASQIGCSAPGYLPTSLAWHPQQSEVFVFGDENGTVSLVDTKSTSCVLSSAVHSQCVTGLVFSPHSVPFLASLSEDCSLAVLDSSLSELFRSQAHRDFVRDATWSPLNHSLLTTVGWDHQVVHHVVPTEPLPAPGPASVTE

Regarding `COc1ncnc2c1ccn2[C@@H]1S[C@H](COc2ccc3ccc(NCC4CC4)nc3c2)[C@@H](O)[C@H]1O` [Example 8, (2R,3S,4R,5R)-2-(((2-((cyclopropylmethyl)amino)quinolin-7-yl)oxy)methyl)-5-(4-methoxy-7H-pyrrolo[2,3-d]pyrimidin-7-yl)tetrahydrothiophene-3,4-diol], the results for the EC50 in assay [1] and in assay [2] (setting [3]) were 3710 nM and 38300 nM, respectively.

As to `Nc1nc2cc(OC[C@H]3S[C@@H](n4ccc5c(Cl)ncnc54)[C@H](O)[C@@H]3O)ccc2cc1Cl` [Example 5], the EC50 in assay [1] was not below 10000 nM; in assay [2] (setting [3]) it was 26.2 nM.

For the compound `Cc1ncnc2c1ccn2[C@@H]1S[C@H](CCc2ccc3cc(Cl)c(N)nc3c2)[C@@H](O)[C@H]1O` [Example 24], the EC50 in assay [1] amounted to 17.4 nM; in assay [2] (setting [3]) it was 1.5 nM.

As for `Cc1ncnc2c1ccn2[C@@H]1S[C@H](CCc2ccc3cc(C(F)(F)F)c(N)nc3c2)[C@@H](O)[C@H]1O` [Example 20, (2R,3S,4R,5R)-2-{2-[2-amino-3-(triflnoromethyl)quinolin-7-yl]ethyl}-5-(4-methyl-7H-pyrrolo[2,3-d]pyrimidin-7-yl)tetrahydrothionhene-3,4-diol], the EC50 in assay [1] was 741 nM; in assay [2] (setting [4]) it was 120 nM; in assay [2] (setting [3]) it was 0.7 nM.

Regarding `C[C@]1(CCc2ccc3cc(Br)c(N)nc3c2)S[C@@H](n2ccc3c(Cl)ncnc32)[C@H](O)[C@@H]1O` [Example 31, (2R,3S,4R,5R)-2-(2-(2-amino-3-bromoquinolin-7-yl)ethyl)-5-(4-chloro-7H-pyrrolo[2,3-d]pyrimidin-7-yl)-2-methyltetrahydrothiophene-3,4-diol], the EC50 in assay [1] turned out to be 53.4 nM; in assay [2] (setting [3]) it was 0.7 nM.

As to `Nc1nc2cc(CC[C@H]3S[C@@H](n4cc(F)c5c(N)ncnc54)[C@H](O)[C@@H]3O)ccc2cc1Br` [Example 37, (2R,3S,4R,5R)-2-(2-(2-amino-3-bromoquinolin-7-yl)ethyl)-5-(4-amino-5-fluoro-7H-pyrrolo[2,3-d]pyrimidin-7-yl)tetrahydrothiophene-3,4-diol], the values for the EC50 in assay [1], in assay [2] (setting [4]) and in assay [2] (setting [3]) were 9.5 nM, 16.2 nM and 0.4 nM, respectively.

As for `Nc1ccc2ccc(OC[C@H]3S[C@@H](n4ccc5c(N)ncnc54)[C@H](O)[C@@H]3O)cc2n1` [Example 11, (2R,3R,4S,5R)-2-(4-amino-7H-pyrrolo[2,3-d]pyrimidin-7-yl)-5-(((2-aminoquinolin-7-yl)oxy)methyl)tetrahydrothiophene-3,4-diol], the EC50 in assay [1] came out at 87.1 nM; in assay [2] (setting [4]), 55 nM; in assay [2] (setting [3]) it was 0.7 nM.

In the case of `Cc1ncnc2c1ccn2[C@@H]1S[C@@H](CCc2ccc3cc(Cl)c(N)nc3c2)[C@@H](O)[C@H]1O` [Example 25, (2S,3S,4R,5R)-2-[2-(2-amino-3-chloroquinolin-7-yl)ethyl]-5-(4-methy1-7H-pyrrolo[2,3-d]pyrimidin-7-yl)tetrahydrothiophene-3,4-diol], the EC50 in assay [1] worked out at 8.4 nM; in assay [2] (setting [3]) it was 1.3 nM.

`Cc1cn([C@@H]2S[C@H](CCc3ccc4cc(Br)c(N)nc4c3)[C@@H](O)[C@H]2O)c2ncnc(N)c12` [Example 34, (2R,3S,4R,5R)-2-(2-(2-amino-3-bromoquinolin-7-yl)ethyl)-5-(4-amino-5-methyl-7H-pyrrolo[2,3-d]pyrimidin-7-yl)tetrahydrothiophene-3,4-diol]: the EC50 in assay [1] is 29.1 nM; in assay [2] (setting [4]) it was 151 nM; in assay [2] (setting [3]), 0.5 nM.
